Results published in patent US20250326771A1, “PIPERAZINE DERIVATIVES USEFUL IN HIV THERAPY” (VIIV HEALTHCARE COMPANY, priority 2022, published 2025).

Assays:
cIAP1-BIR2 = cIAP1-BIR2 (Homo sapiens (Human), UniProt Q13490); test: BIR binding assay (FRET competition), cIAP1 BIR2
Method in brief: (§1)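 His-tagged domains (50 nM cIAP1-BIR3, 325 nM cIAP2-BIR2, 325 nM cIAP1-BIR2, 100 nM XIAP-BIR3) compete with compounds for a 200 nM AlexaFluor647-labelled SMAC/DIABLO peptide in HEPES buffer, pH 7.4, for 60 min. Then 2 nM Eu-W1024 is added for 30 min. The 615/665 nm ratio is fit by four-parameter fit to give IC50.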

XIAP-BIR3 = XIAP-BIR3 (Homo sapiens (Human), UniProt P98170); test: BIR binding assay (FRET competition), XIAP BIR3
Sequence of XIAP-BIR3 (P98170 241-356): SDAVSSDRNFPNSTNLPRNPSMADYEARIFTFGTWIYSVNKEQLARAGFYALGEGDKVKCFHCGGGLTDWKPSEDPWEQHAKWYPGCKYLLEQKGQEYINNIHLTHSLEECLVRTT
Method in brief: as §1

cIAP1-BIR3 = cIAP1-BIR3 (Homo sapiens (Human), UniProt Q13490); test: BIR binding assay (FRET competition), cIAP1 BIR3; conditions: for cIAP1 BIR3 vs BIR2 separation window: fold separation (FS) for cIAP1
Sequence of cIAP1-BIR3 (Q13490 253-363): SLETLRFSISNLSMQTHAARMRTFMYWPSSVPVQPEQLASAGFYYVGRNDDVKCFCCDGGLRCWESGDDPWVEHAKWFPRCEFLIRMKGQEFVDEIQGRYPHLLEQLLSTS
Method in brief: as §1

[1] = tested on: Jurkat HIV-luciferase clones; test: Jurkat latency reversal assay; type: cell-based; conditions: Jurkat latency reversal assay potency; for EC50: Homo sapiens, 48 h, read-out: Jurkat pEC50 (converted)
Method in brief: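 A 1:1:1 mix of three Jurkat clones (C16, 115, N6) carrying integrated luciferase-expressing HIV proviruses, 5,000 cells/well, was exposed to 3-fold, 14-point compound titrations from 10 μM at 0.5% DMSO for 48 h at 37° C. Steady-Glo luminescence was fitted by four-parameter logistic regression to give EC50 and maximal percent activation relative to vehicle.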

cIAP2-BIR3 = cIAP2-BIR3 (Homo sapiens (Human), UniProt Q13489); test: BIR binding assay (FRET competition), cIAP2 BIR3; conditions: for cIAP2 BIR3 vs BIR2 separation window: fold separation (FS) for cIAP2
Sequence of cIAP2-BIR3 (Q13489 238-349): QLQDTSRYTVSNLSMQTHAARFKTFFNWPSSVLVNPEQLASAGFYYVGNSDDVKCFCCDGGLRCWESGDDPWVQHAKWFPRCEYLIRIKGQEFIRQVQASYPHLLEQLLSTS

cIAP2-BIR2 = cIAP2-BIR2 (Homo sapiens (Human), UniProt Q13489); test: BIR binding assay (FRET competition), cIAP2 BIR2
Sequence of cIAP2-BIR2 (Q13489 158-242): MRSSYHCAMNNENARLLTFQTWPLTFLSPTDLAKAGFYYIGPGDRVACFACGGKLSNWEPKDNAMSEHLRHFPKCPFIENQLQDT
Method in brief: as §1

Sequence of cIAP1-BIR2 (Q13490 173-257): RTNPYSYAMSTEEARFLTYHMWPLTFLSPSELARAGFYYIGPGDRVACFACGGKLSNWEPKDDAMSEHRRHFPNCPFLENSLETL

SMILES	IC50 (cIAP1-BIR2)	IC50 (XIAP-BIR3)	IC50 (cIAP1-BIR3)	cIAP1 BIR3 vs BIR2 separation window (cIAP1-BIR3)	EC50 [1]	IC50 (cIAP2-BIR3)	cIAP2 BIR3 vs BIR2 separation window (cIAP2-BIR3)	IC50 (cIAP2-BIR2)	cIAP1 BIR2 (pIC50) (cIAP1-BIR2; FRET competition binding)	XIAP BIR3 (pIC50) (XIAP-BIR3; FRET competition binding)	cIAP1 BIR3 (pIC50) (cIAP1-BIR3; FRET competition binding)	Jurkat pEC50 [1]	cIAP2 BIR3 (pIC50) (cIAP2-BIR3; FRET competition binding)	cIAP2 BIR2 (pIC50) (cIAP2-BIR2; FRET competition binding)
C[C@@H]1CN(CC(=O)N2CC(C)(C)c3[nH]c(=O)c(Cc4ccc(F)cc4)cc32)[C@@H](CN2CCN(C(=O)c3ccc(/C=C/c4ccc(C(=O)N5CCN(C[C@H]6CN[C@H](C)CN6CC(=O)N6CC(C)(C)c7[nH]c(=O)c(Cc8ccc(F)cc8)cc76)[C@H](C)C5)cc4)cc3)C[C@H]2C)CN1 [Example 20, 1,1′-(2,2′-((3R,3′R,6R,6′R)-(((2R,2′R)-(4,4′-((E)-ethene-1,2-diyl)bis(benzoyl))bis(2-methylpiperazine-4,1-diyl))bis(methylene))bis(3-methylpiperazine-6,1-diyl))bis(acetyl))bis(6-(4-fluorobenzyl)-3,3-dimethyl-1,2,3,4-tetrahydro-5H-pyrrolo[3,2-b]pyridin-5-one)]	22.4 to 1000 nM	31.6 to 501 nM	15.8 to 31.6 nM	+ (100>FS>1)	12.6 to 63.1 nM	15.8 to 31.6 nM	++ (1,000>FS>100)	22.4 to 1000 nM	–	–	–	–	–	–
C[C@@H]1CN(CC(=O)N2CC(C)(C)c3[nH]c(=O)c(Cc4ccc(F)cc4)cc32)[C@@H](CN2CCN(CCCCCCCCCCN3CCN(C[C@H]4CN[C@H](C)CN4CC(=O)N4CC(C)(C)c5[nH]c(=O)c(Cc6ccc(F)cc6)cc54)[C@H](C)C3)C[C@H]2C)CN1 [Example 25, 1,1′-(2,2′-((3R,3′R,6R,6′R)-(((2R,2′R)-decane-1,10-diylbis(2-methylpiperazine-4,1-diyl))bis(methylene))bis(3-methylpiperazine-6,1-diyl))bis(acetyl))bis(6-(4-fluorobenzyl)-3,3-dimethyl-1,2,3,4-tetrahydro-5H-pyrrolo[3,2-b]pyridin-5-one)]	22.4 to 1000 nM	7.94 to 15.8 nM	7.94 to 15.8 nM	++ (1,000>FS>100)	12.6 to 63.1 nM	1.38 to 7.94 nM	+++ (10,000>FS>1,000)	22.4 to 1000 nM	–	–	–	–	–	–
C[C@@H]1CN(CC(=O)N2CC(C)(C)c3[nH]c(=O)c(Cc4ccc(F)cc4)cc32)[C@@H](CN2CCN(CCCCCCCCCCCCN3CCN(C[C@H]4CN[C@H](C)CN4CC(=O)N4CC(C)(C)c5[nH]c(=O)c(Cc6ccc(F)cc6)cc54)[C@H](C)C3)C[C@H]2C)CN1 [Example 26, 1,1′-(2,2′-((3R,3′R,6R,6′R)-(((2R,2′R)-dodecane-1,12-diylbis(2-methylpiperazine-4,1-diyl))bis(methylene))bis(3-methylpiperazine-6,1-diyl))bis(acetyl))bis(6-(4-fluorobenzyl)-3,3-dimethyl-1,2,3,4-tetrahydro-5H-pyrrolo[3,2-b]pyridin-5-one)]	1000 to 3160 nM	15.8 to 31.6 nM	31.6 to 501 nM	–	12.6 to 63.1 nM	7.94 to 15.8 nM	–	1000 to 3160 nM	–	–	–	–	–	–
C[C@@H]1CN(CC(=O)N2CC(C)(C)c3[nH]c(=O)c(Cc4ccc(F)cc4)cc32)[C@@H](CN2CCC[C@H](NC(=O)CCCCCCCCCCCCC(=O)N[C@H]3CCCN(C[C@H]4CN[C@H](C)CN4CC(=O)N4CC(C)(C)c5[nH]c(=O)c(Cc6ccc(F)cc6)cc54)C3)C2)CN1 [Example 40, N^1,N^14-bis((S)-1-(((2R,5R)-1-(2-(6-(4-fluorobenzyl)-3,3-dimethyl-5-oxo-2,3,4,5-tetrahydro-1H-pyrrolo[3,2-b]pyridin-1-yl)-2-oxoethyl)-5-methylpiperazin-2-yl)methyl)piperidin-3-yl)tetradecanediamide]	10000 to 51300 nM	31.6 to 501 nM	15.8 to 31.6 nM	+++ (10,000>FS>1,000)	63.1 to 316 nM	15.8 to 31.6 nM	+++ (10,000>FS>1,000)	10000 to 51300 nM	–	–	–	–	–	–
C[C@@H]1CN(CC(=O)N2CC(C)(C)c3[nH]c(=O)c(Cc4ccc(F)cc4)cc32)[C@@H](CN2CCO[C@H](COc3ccc(Oc4ccc(OC[C@@H]5CN(C[C@H]6CN[C@H](C)CN6CC(=O)N6CC(C)(C)c7[nH]c(=O)c(Cc8ccc(F)cc8)cc76)CCO5)cc4)cc3)C2)CN1 [Example 55, 1,1′-(2,2′-((3R,3′R,6R,6′R)-(((2S,2'S)-(((oxybis(4,1-phenylene))bis(oxy))bis(methylene))bis(morpholine-2,4-diyl))bis(methylene))bis(3-methylpiperazine-6,1-diyl))bis(acetyl))bis(6-(4-fluorobenzyl)-3,3-dimethyl-1,2,3,4-tetrahydro-5H-pyrrolo[3,2-b]pyridin-5-one)]	–	–	–	++++ (FS>10,000)	–	–	++++ (FS>10,000)	–	+ (4.29<pIC50<=5.00)	++ (7.80>pIC50>=7.50)	+ (7.50>pIC50>=6.30)	++++ (9.31>pEC50>=7.90)	+++ (8.10>pIC50>=7.80)	+ (4.29<pIC50<=5.00)
C[C@@H]1CN(CC(=O)N2CC(C)(C)c3[nH]c(=O)c(Cc4ccc(F)cc4)cc32)[C@@H](CN2CCO[C@H](COc3ccc(C(=O)C(=O)c4ccc(OC[C@@H]5CN(C[C@H]6CN[C@H](C)CN6CC(=O)N6CC(C)(C)c7[nH]c(=O)c(Cc8ccc(F)cc8)cc76)CCO5)cc4)cc3)C2)CN1 [Example 59, 1,2-bis(4-(((S)-4-(((2R,5R)-1-(2-(6-(4-fluorobenzyl)-3,3-dimethyl-5-oxo-2,3,4,5-tetrahydro-1H-pyrrolo[3,2-b]pyridin-1-yl)-2-oxoethyl)-5-methylpiperazin-2-1)methyl)morpholin-2-yl)methoxy)phenyl)ethane-1,2-dione]	3160 to 10000 nM	15.8 to 31.6 nM	15.8 to 31.6 nM	+++ (10,000>FS>1,000)	0.49 to 12.6 nM	7.94 to 15.8 nM	+++ (10,000>FS>1,000)	3160 to 10000 nM	–	–	–	–	–	–
C[C@@H]1CN(CC(=O)N2CC(C)(C)c3[nH]c(=O)c(Cc4ccc(F)cc4)cc32)[C@@H](CN2CCO[C@H](COCCCCCCOC[C@@H]3CN(C[C@H]4CN[C@H](C)CN4CC(=O)N4CC(C)(C)c5[nH]c(=O)c(Cc6ccc(F)cc6)cc54)CCO3)C2)CN1 [Example 64, 1,1′-(2,2′-((3R,3′R,6R,6′R)-(((2S,2'S)-((hexane-1,6-diylbis(oxy))bis(methylene))bis(morpholine-2,4-diyl))bis(methylene))bis(3-methylpiperazine-6,1-diyl))bis(acetyl))bis(6-(4-fluorobenzyl)-3,3-dimethyl-1,2,3,4-tetrahydro-5H-pyrrolo[3,2-b]pyridin-5-one)]	10000 to 51300 nM	7.94 to 15.8 nM	7.94 to 15.8 nM	–	0.49 to 12.6 nM	1.38 to 7.94 nM	–	10000 to 51300 nM	–	–	–	–	–	–
C[C@@H]1CN(CC(=O)N2CC(C)(C)c3[nH]c(=O)c(Cc4ccc(F)cc4)cc32)[C@@H](CN2CCO[C@H](COc3ccccc3-c3ccccc3OC[C@@H]3CN(C[C@H]4CN[C@H](C)CN4CC(=O)N4CC(C)(C)c5[nH]c(=O)c(Cc6ccc(F)cc6)cc54)CCO3)C2)CN1 [Example 67, 1,1′-(2,2′-((3R,3′R,6R,6′R)-(((2S,2'S)—(([1,1′-biphenyl]-2,2′-diylbis(oxy))bis(methylene))bis(morpholine-2,4-diyl))bis(methylene))bis(3-methylpiperazine-6,1-diyl))bis(acetyl))bis(6-(4-fluorobenzyl)-3,3-dimethyl-1,2,3,4-tetrahydro-5H-pyrrolo[3,2-b]pyridin-5-one)]	1000 to 3160 nM	7.94 to 15.8 nM	7.94 to 15.8 nM	–	0.49 to 12.6 nM	7.94 to 15.8 nM	–	3160 to 10000 nM	–	–	–	–	–	–
C[C@@H]1CN(CC(=O)N2CC(C)(C)c3[nH]c(=O)c(Cc4ccc(F)cc4)cc32)[C@@H](CN2CCO[C@H](COc3cc(F)cc(OC[C@@H]4CN(C[C@H]5CN[C@H](C)CN5CC(=O)N5CC(C)(C)c6[nH]c(=O)c(Cc7ccc(F)cc7)cc65)CCO4)c3)C2)CN1 [Example 73, 1,1′-(2,2′-((3R,3′R,6R,6′R)-(((2S,2'S)-(((5-fluoro-1,3-phenylene)bis(oxy))bis(methylene))bis(morpholine-2,4-diyl))bis(methylene))bis(3-methylpiperazine-6,1-diyl))bis(acetyl))bis(6-(4-fluorobenzyl)-3,3-dimethyl-1,2,3,4-tetrahydro-5H-pyrrolo[3,2-b]pyridin-5-one)]	3160 to 10000 nM	15.8 to 31.6 nM	7.94 to 15.8 nM	+++ (10,000>FS>1,000)	0.49 to 12.6 nM	1.38 to 7.94 nM	+++ (10,000>FS>1,000)	3160 to 10000 nM	–	–	–	–	–	–
C[C@@H]1CN(CC(=O)N2CC(C)(C)c3[nH]c(=O)c(Cc4ccc(F)cc4)cc32)[C@@H](CN2CCO[C@H](COc3ccc(F)c(OC[C@@H]4CN(C[C@H]5CN[C@H](C)CN5CC(=O)N5CC(C)(C)c6[nH]c(=O)c(Cc7ccc(F)cc7)cc65)CCO4)c3F)C2)CN1 [Example 74, 1,1′-(2,2′-((3R,3′R,6R,6′R)-(((2S,2'S)-(((2,4-difluoro-1,3-phenylene)bis(oxy))bis(methylene))bis(morpholine-2,4-diyl))bis(methylene))bis(3-methylpiperazine-6,1-diyl))bis(acetyl))bis(6-(4-fluorobenzyl)-3,3-dimethyl-1,2,3,4-tetrahydro-5H-pyrrolo[3,2-b]pyridin-5-one)]	1000 to 3160 nM	1.38 to 7.94 nM	1.38 to 7.94 nM	+++ (10,000>FS>1,000)	0.49 to 12.6 nM	1.38 to 7.94 nM	+++ (10,000>FS>1,000)	1000 to 3160 nM	–	–	–	–	–	–
